{"source": "paper PMC13095408", "about": "“DBeQ derivative targets vacuolar protein sorting 4 functions in cancer cells and suppresses tumor growth in mice” (The Journal of Pharmacology and Experimental Therapeutics, 2025)", "key": {"[1]": {"tested_on": "GFP-CHMP4B-expressing U2OS cells", "test": "GFP-CHMP4B accumulation cell-based assay (high-content microscopy)", "procedure,_shortened": "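GFP-CHMP4B U2OS cells were cultured overnight, stained, then treated in SM with compounds (0.1% DMSO or 0.1% DMSO/0.1% ethanol vehicle final). High-content imaging used a 20× NA .70 objective at set intervals, ≥300 cells/well over 3 fields/well.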"}, "[2]": {"test": "Human liver microsomal stability", "assay_type": "in vitro ADME", "conditions": "Human liver microsomes, 1 μM of compound", "protocol": "(§1) All in vitro absorption, distribution, metabolism, and excretion (ADME) studies were conducted by BioDuro-Sundia. […] Caco-2 permeability, human liver microsomal stability, and human plasma protein binding assays as well as liquid chromatography-mass spectrometry/mass spectrometry analyses were performed following standard protocols previously described in detail ([Kazakova et al, 2023])."}, "[3]": {"test": "Human plasma protein binding", "assay_type": "in vitro ADME", "conditions": "5 μM of compound", "protocol": "as §1"}, "[4]": {"test": "Escalating dose MTD study", "assay_type": "in vivo", "conditions": "daily doses increasing 50% each day from 5 mg/kg, B6 mice", "protocol": "All animal studies were performed in accordance with the guidelines of the Institutional Animal Care and Use Committee at the Penn State College of Medicine (IACUC # PRAMS201145989). To determine the maximum tolerated dose (MTD) of 4-107, escalating and acute dose studies were performed. The escalating MTD study used an intra-animal design where each mouse received daily doses of 4-107 that increased 50% each day from a starting dose of 5 mg/kg. Six female C57BL/6J (B6) (The Jackson Laboratory; 000664) were administered 4-107 either orally via oral gavage or via intraperitoneal injection with 3 mice per group. The acute MTD study had groups of mice receive daily consistent doses of 4-107 i.p. Here, B6 mice were administered 4-107 at either 5 (n = 4; 2 males [M], 2 females [F]), 10 (n = 4; 2 M, 2 F), 15 (n = 5; all M), or 20 mg/kg (n = 5; all M). In both studies, 4-107 dissolved in DMSO was mixed into 30% propylene glycol, 5% Tween 80, and 65% of 5% dextrose in water (PTD [vehicle]) with a final DMSO concentration of ≤ 3%. […] BCS was determined by posture and prominence of skeletal features upon visual inspection and palpation, where BCS < 2 indicated a hunched posture and emaciation. […] The MTD was determined as the highest dose of 4-107 administered without mice reaching the toxicity endpoints."}, "VPS4B": {"molecular_target": "T1, VPS4B (Homo sapiens, UniProt O75351)", "T1 sequence (O75351 1-444)": "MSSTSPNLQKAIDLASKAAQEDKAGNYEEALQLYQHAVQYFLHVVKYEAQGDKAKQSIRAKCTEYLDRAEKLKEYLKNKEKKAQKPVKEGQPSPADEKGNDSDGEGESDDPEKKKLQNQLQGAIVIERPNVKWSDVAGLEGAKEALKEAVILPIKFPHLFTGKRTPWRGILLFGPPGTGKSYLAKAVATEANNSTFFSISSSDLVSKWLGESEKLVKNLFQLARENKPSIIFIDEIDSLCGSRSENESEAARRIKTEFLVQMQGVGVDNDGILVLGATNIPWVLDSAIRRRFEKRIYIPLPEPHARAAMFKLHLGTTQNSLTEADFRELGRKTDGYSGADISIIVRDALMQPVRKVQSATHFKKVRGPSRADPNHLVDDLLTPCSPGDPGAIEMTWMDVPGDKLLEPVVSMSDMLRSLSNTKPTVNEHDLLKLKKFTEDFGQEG", "test": "VPS4B cellular thermal shift assay (CETSA)", "assay_type": "cell-based", "parameters": "endogenous in cells; host or cells: U2OS", "conditions": "2 μM 4-107, 1 hour, starved U2OS cells", "protocol": "The VPS4B CETSA was performed as previously described with modification ([Jafari et al, 2014]). In 10-cm dishes, near-confluent U2OS cells were rinsed with 1× DPBS and treated with the indicated compounds in acclimatized SM for 1 hour at 37 °C (0.1% DMSO). Cells were trypsinized, pelleted at 300 × g for 5 minutes, and washed with 1× PBS. After repeat pelleting at 300 × g for 5 minutes, the cells were resuspended in 1× PBS with protease inhibitor cocktail (1:250) and aliquoted into PCR strips with 20 μL per tube. PCR strips for each treatment were heated on a temperature gradient for 3 minutes using a thermal cycler (Bio-Rad Laboratories), followed by incubation at RT for 3 minutes. […] To normalize protein loading for SDS-PAGE, the soluble protein concentration of each 37 °C sample was quantified via the Pierce BCA assay ([…]), and a volume equal to 10 μg of protein was used for all samples from the same treatment. […] Signals were acquired with the Odyssey CLx (LI-COR) and quantified via densitometry using Image Studio version 6 (LI-COR). The remaining VPS4B levels were calculated by first obtaining the ratio of VPS4B:ACTB band intensities of each sample and then normalizing these ratios to that of the respective 37 °C sample. […]"}}, "data": [{"smiles": "COc1cccc2c(NCc3ccccc3)nc(NCc3ccccc3)nc12", "note": "[Compound 4-107, N^2,N^4-dibenzyl-8-methoxyquinazoline-2,4-diamine]", "values": [{"measurement": "GFP-CHMP4B (% 4-107)", "setting": "[1]; screened at 1 µM, mean ± S.D., Supplemental Table 2", "value": "100.00 ± 17.20", "unit": "% 4-107"}, {"measurement": "GFP-CHMP4B (% 4-107)", "setting": "[1]; screened at 1 μM, starvation media, 1 hour, foci intensity per cell normalized to 4-107, mean ± SD, Table 1, listed as 1", "value": "100.00 ± 17.20", "unit": "% 4-107"}, {"measurement": "Liver microsomal stability, remaining after 1 h", "setting": "[2]", "value": 71.83, "unit": "%"}, {"measurement": "microsomal CLint at 1 μM", "setting": "[2]; read-out: In vitro intrinsic clearance, Clint", "value": 11.8, "unit": "µL/min/mg"}, {"measurement": "half-life at 1 μM", "setting": "[2]; read-out: Liver microsomal stability, T1/2", "value": 1.95, "unit": "h"}, {"measurement": "fraction unbound at 5 μM", "setting": "[3]", "value": 0.0007}, {"measurement": "doses exhibiting toxicity, intraperitoneal route", "setting": "[4]; i.p.", "value": "above 25 mg/kg"}, {"measurement": "well tolerated dose, oral route", "setting": "[4]; oral gavage, doses up to", "value": "approximately 90 mg/kg"}, {"measurement": "decrease of VPS4B Tagg", "setting": "VPS4B", "value": "approximately 3 °C"}]}]}
